The values below come from patent US10087172B2, “Compounds and their methods of use” (AGIOS PHARMACEUTICALS, INC, priority 2012, dated 2018).

pIC50: −log10 of the molar value. Bounds are passed on as bounds.

The pIC50 is −log10 of the IC50, conventionally taken in molar units.

This assay concerns the target T1, glutaminase (GAC) (Homo sapiens, UniProt O94925).
T1 sequence (O94925 55-598 isoform O94925-3 limits assumed): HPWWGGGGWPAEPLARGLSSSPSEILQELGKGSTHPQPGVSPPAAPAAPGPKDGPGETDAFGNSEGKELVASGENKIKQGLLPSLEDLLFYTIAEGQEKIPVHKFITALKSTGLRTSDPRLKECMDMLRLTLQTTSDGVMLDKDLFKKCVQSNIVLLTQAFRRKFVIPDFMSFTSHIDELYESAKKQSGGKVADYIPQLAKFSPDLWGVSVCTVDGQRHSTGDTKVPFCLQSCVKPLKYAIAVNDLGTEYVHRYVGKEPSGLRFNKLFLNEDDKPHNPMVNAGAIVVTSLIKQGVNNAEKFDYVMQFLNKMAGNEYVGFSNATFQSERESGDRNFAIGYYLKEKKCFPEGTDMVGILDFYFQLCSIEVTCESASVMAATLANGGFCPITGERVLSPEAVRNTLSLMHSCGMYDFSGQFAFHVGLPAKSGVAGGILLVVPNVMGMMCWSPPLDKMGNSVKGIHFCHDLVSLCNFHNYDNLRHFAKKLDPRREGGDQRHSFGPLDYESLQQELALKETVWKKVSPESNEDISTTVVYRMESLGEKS
In words: Glutaminase (GAC) coupled endpoint enzymatic assay (glutamate dehydrogenase/diaphorase/resazurin, Ex544/Em590). The settings on record: inhibition of glutaminase, tested in an assay of Example A or Example B; class symbols A-E. It counts as biochemical. An excerpt: In certain embodiments, exemplary compounds of Formula I include the compounds described in Table 1 and in the Examples. A compound described herein may be tested for its ability to inhibit glutaminase, e.g., by an assay as described in the Examples. For simplicity, the inhibition activity of these compounds is represented as an IC50 tested in an assay of Example A or Example B in Table 1. […] “N/A” refers to compounds wherein the IC50 is unavailable.
In this example, the enzymatic activity of glutaminase is measured through a coupled endpoint assay. Glutamine and phosphate are supplied to GAC at a concentration equal to Km and AC50, respectively, and GAC concentration is adjusted to give a linear reaction for 60 minutes. The glutamate produced is converted to 2-OG by a kinetic excess of glutamate dehydrogenase. This second step is configured for 2× Km for NAD, since excess NAD is inhibitory. However, a kinetic excess of the third coupling enzyme, diaphorase, recycles NAD from NADH to keep the NAD concentration constant during the timecourse of the assay. Diaphorase, also supplied in kinetic excess, oxidizes NADH produced by GDH back to NAD with the concomitant reduction of rezasurin to the highly fluorescent resorufin. Resorufin in measured after the assay is stopped with SDS by Ex544/Em590. A reduction in the signal indicates inhibition of some component of the coupled enzyme system. Prospective hits are counterscreened against GDH/diaphorase alone to remove hits to the coupling enzyme system in a second assay.
2. Buffers 2× Buffer (300 mM NaCl, 100 mM HEPES pH 8.5, 0.1% BSA, 0.5 mM EDTA, 100 mM sodium phosphate pH 8.5) 5× Substrate Mix (1× Buffer final concentration, with 13 mM glutamine, 100 μM resazurin, 50 μg/ml diaphorase) 1.2× Enzyme Mix (1× Buffer final concentration, with 0.875 μg/ml GAC, 1.56 mM NAD, 6.25 units/ml GDH) Stop Mix (6% SDS in ddH2O) Reaction Procedure 1. Add 1 μl compound in 100% DMSO 2. Add 40 μl of Enzyme Mix and incubate for 60 minute at room temperature 3. Add 10 μl of Substrate Mix to start reaction 4. Stop reaction with 25 μl of 6% SDS and read Ex544 Em 590
A general note: The colour change of resazurin is a common sign of viable cells or microbes.
Regarding `O=C(Cc1cccc(N2CC(F)(F)C2)n1)Nc1nnc([C@H]2CC[C@H](c3nnc(NC(=O)[C@H](O)c4ccccc4)s3)C2)s1` [Compound 378, (R)—N-(5-((1S,3S)-3-(5-(2-(6-(3,3-difluoroazetidin-1-yl)pyridin-2-yl)acetamido)-1,3,4-thiadiazol-2-yl)cyclopentyl)-1,3,4-thiadiazol-2-yl)-2-hydroxy-2-phenylacetamide], the pIC50 is > 7.00. Regarding `O=C(Cc1cccc(N2CC(F)(F)C2)n1)Nc1nnc([C@H]2CC[C@H](c3nnc(NC(=O)[C@@H](O)c4ccccc4)s3)C2)s1` [Compound 377, (S)—N-(5-((1S,3S)-3-(5-(2-(6-(3,3-difluoroazetidin-1-yl)pyridin-2-yl)acetamido)-1,3,4-thiadiazol-2-yl)cyclopentyl)-1,3,4-thiadiazol-2-yl)-2-hydroxy-2-phenylacetamide], the pIC50 is > 7.00. For the compound `O=C(Cc1cnccn1)Nc1nnc([C@H]2CCC[C@H](c3nnc(NC(=O)Cc4cnccn4)s3)C2)s1` (relative stereo) [Compound 76], the pIC50 was > 7.00.

With `CC(=O)Nc1ccccc1CC(=O)Nc1nnc([C@H]2CCC[C@H](c3nnc(NC(=O)Cc4ccccc4NC(C)=O)s3)C2)s1` [Compound 55, N,N′-(5,5′-((1S,3S)-cyclohexane-1,3-diyl)bis(1,3,4-thiadiazole-5,2-diyl))bis(2-(2-acetamidophenyl)acetamide)], the pIC50 was 6.30 to 7.00. In the case of `Cc1cc(CC(=O)Nc2nnc([C@H]3CCC[C@H](c4nnc(NC(=O)Cc5cc(C)no5)s4)C3)s2)on1` [Compound 30, N,N′-(5,5′-((1S,3S)-cyclohexane-1,3-diyl)bis(1,3,4-thiadiazole-5,2-diyl))bis(2-(3-methylisoxazol-5-yl)acetamide)] it was > 7.00; in that of `O=C(Nc1nnc([C@H]2CC[C@H](c3nnc(NC(=O)[C@H](O)c4ccccc4)s3)C2)s1)[C@H](O)c1ccccc1` [Compound 382], > 7.00. In the case of `N#Cc1cccc(CC(=O)Nc2nnc([C@H]3CCC[C@H](c4nnc(NC(=O)Cc5cccc(C#N)c5)s4)C3)s2)c1` (single isomer, unassigned) [Compound 73] it was > 7.00; in that of `CSCCC(=O)Nc1nnc([C@H]2CCC[C@H](c3nnc(NC(=O)CCSC)s3)C2)s1` [Compound 46, N,N′-(5,5′-((1S,3S)-cyclohexane-1,3-diyl)bis(1,3,4-thiadiazole-5,2-diyl))bis(3-(methylthio)propanamide)], 6.30 to 7.00; in that of `CC(C)Oc1cccc(CC(=O)Nc2nnc([C@H]3CCC[C@H](c4nnc(NC(=O)Cc5cccc(OC(C)C)c5)s4)C3)s2)c1` [Compound 91, N,N′-(5,5′-((1S,3S)-cyclohexane-1,3-diyl)bis(1,3,4-thiadiazole-5,2-diyl))bis(2-(3-isopropoxyphenyl)acetamide)], 6.30 to 7.00. With `N#Cc1cccc(CC(=O)Nc2nnc([C@H]3CCC[C@H](c4nnc(NC(=O)Cc5cccc(N6CC(N)C6)n5)s4)C3)s2)c1` [Compound 366, 2-(6-(3-aminoazetidin-1-yl)pyridin-2-yl)-N-(5-((1S,3S)-3-(5-(2-(3-cyanophenyl)acetamido)-1,3,4-thiadiazol-2-yl)cyclohexyl)-1,3,4-thiadiazol-2-yl)acetamide], the pIC50 was > 7.00. `CN(C)c1cccc(CC(=O)Nc2nnc([C@H]3CCC[C@H](c4nnc(NC(=O)Cc5cccc(N(C)C)n5)s4)C3)s2)n1` (single isomer, unassigned) [Compound 105]: the pIC50 is > 7.00. Turning to `O=C(Cc1cccc([N+](=O)[O-])c1)Nc1nnc([C@H]2CCC[C@H](c3nnc(NC(=O)Cc4cccc([N+](=O)[O-])c4)s3)C2)s1` [Compound 69, N,N′-(5,5′-((1S,3S)-cyclohexane-1,3-diyl)bis(1,3,4-thiadiazole-5,2-diyl))bis(2-(3-nitrophenyl)acetamide)], the negative logarithm of the IC50 (pIC50) was > 7.00. For `CC(=O)Nc1cccc(CC(=O)Nc2nnc([C@H]3CCC[C@H](c4nnc(NC(=O)Cc5cccc(NC(C)=O)n5)s4)C3)s2)n1` [Compound 104, N,N′-(5,5′-((1S,3S)-cyclohexane-1,3-diyl)bis(1,3,4-thiadiazole-5,2-diyl))bis(2-(6-acetamidopyridin-2-yl)acetamide)], the pIC50 was > 7.00. As to `CC(=O)Nc1cccc(CC(=O)Nc2nnc([C@H]3CCC[C@H](c4nnc(NC(=O)Cc5cccc(NC(C)=O)c5)s4)C3)s2)c1` [Compound 65, N,N′-(5,5′-((1S,3S)-cyclohexane-1,3-diyl)bis(1,3,4-thiadiazole-5,2-diyl))bis(2-(3-acetamidophenyl)acetamide)], the pIC50 was > 7.00. In the case of `O=C(Cc1cncc(N2CC(F)(F)C2)n1)Nc1nnc([C@H]2CCC[C@H](c3nnc(NC(=O)Cc4cncc(N5CC(F)(F)C5)n4)s3)C2)s1` [Compound 354] it was > 7.00. In the case of `O=C(Cc1cccc(OC(F)(F)F)c1)Nc1nnc([C@H]2CCC[C@H](c3nnc(NC(=O)C(CO)c4ccccc4)s3)C2)s1` (stereo partly drawn) [Compound 389, 3-hydroxy-2-phenyl-N-(5-((1S,3S)-3-(5-(2-(3-(trifluoromethoxy)phenyl)acetamido)-1,3,4-thiadiazol-2-yl)cyclohexyl)-1,3,4-thiadiazol-2-yl)propanamide], the pIC50 is > 7.00. In the case of `CS(=O)(=O)c1cccc(CC(=O)Nc2nnc([C@H]3CCC[C@H](c4nnc(NC(=O)Cc5cccc(S(C)(=O)=O)c5)s4)C3)s2)c1` [Compound 54, N,N′-(5,5′-((1S,3S)-cyclohexane-1,3-diyl)bis(1,3,4-thiadiazole-5,2-diyl))bis(2-(3-(methylsulfonyl)phenyl)acetamide)] it was > 7.00; in that of `COc1ccc(CC(=O)Nc2nnc([C@H]3CCC[C@H](c4nnc(NC(=O)Cc5cccc(N6CC(F)(F)C6)n5)s4)C3)s2)cn1` [Compound 359], > 7.00; in that of `COc1ccccc1CC(=O)Nc1nnc([C@H]2CCC[C@H](c3nnc(NC(=O)Cc4ccccc4OC)s3)C2)s1` (single isomer, unassigned) [Compound 70], > 7.00. As to `O=C(Nc1nnc([C@H]2CC[C@H](c3nnc(NC(=O)[C@@H](O)c4ccccc4)s3)C2)s1)[C@@H](O)c1ccccc1` [Compound 379], the pIC50 is > 7.00. `O=C(Cc1ccnc(N2CC(F)(F)C2)n1)Nc1nnc([C@H]2CCC[C@H](c3nnc(NC(=O)Cc4ccnc(N5CC(F)(F)C5)n4)s3)C2)s1` [Compound 346, N,N′-(5,5′-((1R,3R)-cyclohexane-1,3-diyl)bis(1,3,4-thiadiazole-5,2-diyl))bis(2-(2-(3,3-difluoroazetidin-1-yl)pyrimidin-4-yl)acetamide)]: the pIC50 is > 7.00.

Take `N#Cc1cccc(CC(=O)Nc2nnc([C@H]3CCC[C@H](c4nnc(NC(=O)Cc5cccc(C6CCNCC6)c5)s4)C3)s2)c1` [Compound 355]: the pIC50 is > 7.00. In the case of `O=C(Cc1ccccn1)Nc1nnc(CC2CCC(Cc3nnc(NC(=O)Cc4ccccn4)s3)CC2)s1` [Compound 2, N,N′-(5,5′-((1R,4R)-cyclohexane-1,4-diylbis(methylene)bis(1,3,4-thiadiazole-5,2-diyl))bis(2-(pyridin-2-yl)acetamide)] it was 6.00 to 6.30; in that of `O=C(Cc1nccs1)Nc1nnc([C@H]2CCC[C@H](c3nnc(NC(=O)Cc4nccs4)s3)C2)s1` [Compound 61], 6.30 to 7.00.
